Source: ChEMBL document CHEMBL1130523, “Design and synthesis of the cartilage protective agent (CPA, Ro32-3555)” (Bioorg Med Chem Lett, 1997)
≈ marks a conversion by molar mass, not a printed value.

Tests used:
[1] = biological target: Matrix metalloproteinase-9 (Homo sapiens, UniProt P14780); experiment: Inhibition of human gelatinase B, MMP9
[2] = Oral bioavailability in rat; assay type: ADME, organism-based; conditions: in vivo
Stromelysin-1 = Stromelysin-1 (Homo sapiens, UniProt P08254); experiment: Inhibition of human stromelysin-1, MMP-3
Collagenase = experiment: Inhibition of human collagenase (MMP1); assay type: protein assay
[3] = Solubility was determined; assay type: physicochemical
[4] = Partition coefficient (logD); assay type: physicochemical; conditions: octanol/water
Bos taurus = organism: Bos taurus; experiment: Effective activity in protecting bovine nasal cartilage explants against degradation induced by interleukin 1-alpha in efficacy experiments in vitro; assay type: functional

Chain of Matrix metalloproteinase-9 (P14780 whole entry): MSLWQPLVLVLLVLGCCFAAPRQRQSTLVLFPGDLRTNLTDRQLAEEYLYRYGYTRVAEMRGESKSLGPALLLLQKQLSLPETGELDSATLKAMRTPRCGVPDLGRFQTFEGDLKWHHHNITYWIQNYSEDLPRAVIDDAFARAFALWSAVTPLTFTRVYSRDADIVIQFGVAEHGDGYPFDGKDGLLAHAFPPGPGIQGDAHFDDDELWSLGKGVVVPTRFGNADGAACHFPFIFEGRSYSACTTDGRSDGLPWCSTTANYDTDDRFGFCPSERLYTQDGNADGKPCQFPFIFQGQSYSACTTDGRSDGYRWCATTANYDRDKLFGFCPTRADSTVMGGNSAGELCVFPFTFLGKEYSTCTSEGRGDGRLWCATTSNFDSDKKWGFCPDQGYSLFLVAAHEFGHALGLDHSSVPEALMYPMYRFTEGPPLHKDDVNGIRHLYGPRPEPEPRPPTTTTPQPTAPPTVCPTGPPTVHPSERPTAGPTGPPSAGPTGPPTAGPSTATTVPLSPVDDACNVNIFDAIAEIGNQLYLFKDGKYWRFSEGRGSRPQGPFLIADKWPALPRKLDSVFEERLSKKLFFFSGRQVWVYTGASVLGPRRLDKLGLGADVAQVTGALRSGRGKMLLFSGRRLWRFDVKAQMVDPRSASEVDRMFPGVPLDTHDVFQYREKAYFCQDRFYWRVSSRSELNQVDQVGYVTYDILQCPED
Chain of Stromelysin-1 (P08254 whole entry): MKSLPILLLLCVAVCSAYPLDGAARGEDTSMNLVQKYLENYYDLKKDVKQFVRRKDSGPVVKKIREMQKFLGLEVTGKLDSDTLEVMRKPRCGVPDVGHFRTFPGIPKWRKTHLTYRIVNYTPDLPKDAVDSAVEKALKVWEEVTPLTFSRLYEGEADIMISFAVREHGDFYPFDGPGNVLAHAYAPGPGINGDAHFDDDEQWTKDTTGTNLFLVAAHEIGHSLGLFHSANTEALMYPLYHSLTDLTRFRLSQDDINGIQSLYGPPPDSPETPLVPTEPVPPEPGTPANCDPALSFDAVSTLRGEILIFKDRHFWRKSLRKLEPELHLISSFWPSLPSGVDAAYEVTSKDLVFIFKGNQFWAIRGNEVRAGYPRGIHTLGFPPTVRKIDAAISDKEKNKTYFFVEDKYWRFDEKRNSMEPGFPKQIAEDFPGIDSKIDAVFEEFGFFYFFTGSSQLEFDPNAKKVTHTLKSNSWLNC

| SMILES | solubility [3] [mg/mL] | IC50 [1] [nM] | bioavailability [2] [%] | IC50 (Stromelysin-1) [nM] | IC50 (Collagenase) [nM] | logD [4] | IC50 (Bos taurus) [nM] |
| --- | --- | --- | --- | --- | --- | --- | --- |
| CNC(=O)[C@H](NC(=O)[C@H](CC(C)C)[C@@H](CN1C(=O)c2ccccc2C1=O)C(=O)NO)C(C)(C)C |  | 4.3 | 1 | 9.1 |  |  |  |
| CNC(=O)[C@H](NC(=O)C(CC(C)C)C(CN1C(=O)N(C)C(C)(C)C1=O)C(=O)NO)C(C)(C)C (single isomer, unassigned) |  | 2.8 | 1.5 |  | 1 |  |  |
| CC(C)C[C@@H](C(=O)N1CCCCC1)[C@@H](CN1C(=O)N(C)C(C)(C)C1=O)C(=O)NO | > 100 | 237 | 30 | 2180 | 10.1 | 0.6 | < 100 |
| CNC(=O)[C@H](NC(=O)[C@H](CC(C)C)[C@@H](C)C(=O)NO)C(C)(C)C |  | 2.4 | 2.7 | 47 | 2.6 |  |  |

More lines, main results first:

| solubility [3] [mg/mL] | SMILES | IC50 [1] [nM] | bioavailability [2] [%] | IC50 (Stromelysin-1) [nM] | IC50 (Collagenase) [nM] | logD [4] | IC50 (Bos taurus) [nM] |
| --- | --- | --- | --- | --- | --- | --- | --- |
| 73 (≈ 167 mM) | CN1C(=O)N(C[C@@H](C(=O)NO)[C@@H](CC2CCCC2)C(=O)N2CCCCC2)C(=O)C1(C)C | 59 | 25 |  |  | 0.6 | < 100 |
| 0.8 (≈ 2.54 mM) | CNC(=O)[C@H](NC(=O)[C@@H](CC(=O)NO)CC(C)C)C(C)(C)C | 10.4 | 3 | 160 | 4.9 |  |  |
